Measured values reported in US20230416240A1, “KAT6 TARGETING COMPOUNDS” (Prelude Therapeutics Incorporated, priority 2022, published 2023).

Assays:
[1] = biological target: T1, KAT6A (Homo sapiens, UniProt Q92794); test: Western Blot KAT6A Degradation Assessment; format: cell-based; conditions: 0.1 μM compound, 24 hours of treatment, HCC1954 cell line, KAT6A normalized to GAPDH and DMSO
T1 construct: These studies were conducted in the HCC1954 cell line which harbors a KAT6A copy number amplification; endogenous in cells; host or cells: HCC1954
Procedure: The activity of compounds was evaluated by measuring KAT6A protein levels as a readout of KAT6A degradation ability using western blot. These studies were conducted in the HCC1954 cell line which harbors a KAT6A copy number amplification. Cells were maintained in a 37° C. incubator at 5% CO2 in the following media: RPMI 1640, ATCC© Modification (Gibco, A10491-01) supplemented with 10% v/v FBS (Gibco, 26140-079) and 1% penicillin streptomycin (Gibco, 15140-122). Cells were seeded in 6-well plates at a density of 300,000 cells/well and allowed to attach overnight in an incubator. Compounds dissolved in DMSO were prepared at 1000× the desired final concentration such that the final percentage of DMSO was 0.1%. After 24 hours of treatment, cells were washed with phosphate buffered saline (PBS) (Corning, 21-040-CV), detached with trypsin-EDTA (Gibco, #25200-056), and pelleted in complete RPMI media in a microcentrifuge for 5 min at 1500 rpm. Protein was extracted from cell pellets by re-suspending in 15 uL PBS before adding 45 uL of lysis buffer composed of 4% SDS, 1× protease and phosphatase inhibitors, and 1 mM PMSF (Cell Signaling Technology, #8553S). Lysates were transferred to homogenizer columns (Omega Biotek, #HCR003) and centrifuged for 1.5 min at 12,000 rpm.
Homogenized lysates were quantified by BCA assay (ThermoScientific, Pierce BCA Protein Assay, #23223, #23224) as per manufacturer instructions. Samples were then diluted in 4× Laemmli buffer (Biorad, #1610747) to a 1× solution which was boiled at 95° C. for 5 minutes. To assess KAT6A protein expression, samples were run on 26 well gels (Biorad, 4-15% Criterion TGX Precast gels, #5671085) at 120V for approximately 1 hour. Protein was transferred to low-fluorescence PVDF membranes (Millipore Sigma, #IPFL00010) using Trans-Blot Turbo Transfer System (Biorad). Membranes were then probed with KAT6A (Cell Signaling Technology, #78462) and GAPDH (Cell Signaling Technology, #5174S) primary, and fluorescently tagged secondary antibodies (LI-COR, IRDye 800CW Goat anti-rabbit #926-32211; IRDye 680RD Goat anti-mouse #926-68070) at manufacturer recommended conditions using the iBind Flex western device (Thermofisher, SLF2000). Membranes were washed briefly in water and scanned with a LI-COR Odyssey CLx. Quantification of bands was assessed using Image Studio Ver 5.2. to normalize KAT6A expression to GAPDH loading controls before representing KAT6A expression as a percentage of that observed in DMSO.

[2] = biological target: T2, HiBit tagged KAT6A (Homo sapiens, UniProt Q92794); test: HiBit KAT6A Degradation Assessment; format: cell-based; conditions: HeLa cells with HiBit tagged KAT6A, 18 h of treatment, 9-point serial dilution
T2 construct: host or cells: HeLa
Procedure: The degradation activity of compounds was evaluated by measuring levels of KAT6A protein using the HiBiT system. These studies were conducted in HeLa cells with a HiBit tagged KAT6A. Cells were maintained in a 37° C. incubator at 5% CO2 in EMEM (ATCC, 30-2003) supplemented with 10% v/v FBS (Gibco, 26140-079) and 1% penicillin streptomycin. Cells were seeded in 384-well plates at a density of 2,000 cells/well. Compounds dissolved in DMSO were added in 9-point serial dilution. After 18 h of treatment, KAT6A levels were measured using the Nano-Glo® HiBiT Lytic Detection System (Promega catalog number N3030) per manufacturer's instructions. Luminescence signal was measured with a multimode plate reader (Envision 2105, Perkin Elmer). Luminescence values were normalized to background and DMSO controls to quantify KAT6A for each condition. Results were analyzed, and DC50 and Dmax values obtained using a four-parameter logistic curve fit.

T1 sequence (Q92794 whole entry): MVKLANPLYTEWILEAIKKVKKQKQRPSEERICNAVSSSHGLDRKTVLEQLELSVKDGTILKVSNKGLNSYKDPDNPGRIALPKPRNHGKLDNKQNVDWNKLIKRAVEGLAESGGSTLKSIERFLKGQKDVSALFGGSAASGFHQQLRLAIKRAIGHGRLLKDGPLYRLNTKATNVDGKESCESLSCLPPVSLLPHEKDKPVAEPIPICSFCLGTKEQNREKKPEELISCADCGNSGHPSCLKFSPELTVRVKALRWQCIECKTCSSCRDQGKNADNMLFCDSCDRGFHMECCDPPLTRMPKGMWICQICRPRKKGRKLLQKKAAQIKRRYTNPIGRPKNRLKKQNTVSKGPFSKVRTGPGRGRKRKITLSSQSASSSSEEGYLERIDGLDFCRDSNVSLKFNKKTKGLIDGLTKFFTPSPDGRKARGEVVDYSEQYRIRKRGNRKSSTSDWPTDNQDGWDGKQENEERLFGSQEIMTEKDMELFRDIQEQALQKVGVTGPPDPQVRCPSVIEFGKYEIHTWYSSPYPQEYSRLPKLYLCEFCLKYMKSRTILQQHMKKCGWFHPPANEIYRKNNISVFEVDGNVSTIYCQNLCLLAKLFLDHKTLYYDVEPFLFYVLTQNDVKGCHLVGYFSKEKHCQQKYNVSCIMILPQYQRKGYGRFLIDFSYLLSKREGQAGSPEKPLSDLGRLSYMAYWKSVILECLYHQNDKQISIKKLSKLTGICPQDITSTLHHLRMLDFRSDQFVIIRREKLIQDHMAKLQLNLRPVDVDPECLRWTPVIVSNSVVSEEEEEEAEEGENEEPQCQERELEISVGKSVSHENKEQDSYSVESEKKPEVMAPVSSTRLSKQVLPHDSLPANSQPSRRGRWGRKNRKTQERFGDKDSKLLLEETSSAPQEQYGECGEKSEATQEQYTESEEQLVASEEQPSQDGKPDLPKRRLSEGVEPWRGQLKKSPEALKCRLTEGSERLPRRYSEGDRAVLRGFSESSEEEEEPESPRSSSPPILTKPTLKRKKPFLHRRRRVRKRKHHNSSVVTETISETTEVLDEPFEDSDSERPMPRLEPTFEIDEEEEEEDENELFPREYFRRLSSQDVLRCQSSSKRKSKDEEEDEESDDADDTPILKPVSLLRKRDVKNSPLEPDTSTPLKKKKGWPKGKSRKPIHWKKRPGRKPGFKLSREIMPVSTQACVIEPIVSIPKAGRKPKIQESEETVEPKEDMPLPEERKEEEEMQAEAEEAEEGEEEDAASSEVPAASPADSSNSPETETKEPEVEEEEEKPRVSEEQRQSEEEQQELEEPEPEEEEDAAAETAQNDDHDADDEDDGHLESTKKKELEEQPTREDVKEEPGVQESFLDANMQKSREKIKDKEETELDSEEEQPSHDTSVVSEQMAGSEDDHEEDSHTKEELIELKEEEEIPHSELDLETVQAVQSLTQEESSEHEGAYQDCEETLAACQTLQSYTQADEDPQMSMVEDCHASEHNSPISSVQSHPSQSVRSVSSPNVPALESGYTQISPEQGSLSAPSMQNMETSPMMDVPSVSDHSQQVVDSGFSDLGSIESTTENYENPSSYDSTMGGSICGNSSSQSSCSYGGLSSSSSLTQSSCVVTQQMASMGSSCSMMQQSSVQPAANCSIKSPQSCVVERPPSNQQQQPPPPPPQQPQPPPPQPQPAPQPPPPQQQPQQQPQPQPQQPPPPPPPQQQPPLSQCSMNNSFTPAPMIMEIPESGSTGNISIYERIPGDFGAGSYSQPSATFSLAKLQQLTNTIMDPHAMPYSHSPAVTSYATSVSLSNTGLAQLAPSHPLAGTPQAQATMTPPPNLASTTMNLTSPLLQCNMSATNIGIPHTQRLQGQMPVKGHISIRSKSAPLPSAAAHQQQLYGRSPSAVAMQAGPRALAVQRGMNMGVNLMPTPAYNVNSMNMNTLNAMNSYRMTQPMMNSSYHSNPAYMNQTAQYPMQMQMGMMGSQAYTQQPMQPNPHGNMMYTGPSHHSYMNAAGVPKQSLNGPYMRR
T2 sequence (Q92794 whole entry): as above

Structure (SMILES)	inhibition at 0.1 µM [1] [%]	Dmax [2] [%]	DC50 [2] [nM]
COc1cc(Cn2cccn2)cc2onc(NS(=O)(=O)c3cccc(N4CCN(CCCC5CCN(c6ccc7c(c6)C(=O)N(C6CCC(=O)NC6=O)C7=O)CC5)CC4)c3)c12 (stereo not shown) [Example 2, N-(6-((1H-Pyrazol-1-yl)methyl)-4-methoxybenzo[d]isoxazol-3-yl)-3-(4-(3-(1-(2-(2,6-dioxopiperidin-3-yl)-1,3-dioxoisoindolin-5-yl)piperidin-4-yl)propyl)piperazin-1-yl)benzenesulfonamide]	50 to 75	25 to 50	
COc1cc(Cn2cccn2)cc2onc(NS(=O)(=O)c3cccc(N4CCN(C5CC6(CCN(c7ccc8c(c7)C(=O)N(C7CCC(=O)NC7=O)C8=O)CC6)C5)CC4)c3)c12 (stereo not shown) [Example 4, 3-[4-[7-[2-(2,6-Dioxopiperidin-3-yl)-1,3-dioxoisoindol-5-yl]-7-azaspiro[3.5]nonan-2-yl]piperazin-1-yl]-N-[4-methoxy-6-(pyrazol-1-ylmethyl)-1,2-benzoxazol-3-yl]benzenesulfonamide]	50 to 75	> 75	10 to 100
COc1cc(Cn2cccn2)cc2onc(NS(=O)(=O)c3cccc(N4CCC(CN5CCN(c6ccc7c(c6)c6cccnc6n7C6CCC(=O)NC6=O)CC5)C4)c3)c12 (stereo not shown) [Example 6, 3-[3-[[4-[9-(2,6-Dioxopiperidin-3-yl)pyrido[2,3-b]indol-6-yl]piperazin-1-yl]methyl]pyrrolidin-1-yl]-N-[4-methoxy-6-(pyrazol-1-ylmethyl)-1,2-benzoxazol-3-yl]benzenesulfonamide]	50 to 75	50 to 75	10 to 100
COc1cc(Cn2cccn2)cc2onc(NS(=O)(=O)c3cccc(N4CCN(C5CC6(CCN(c7ccc8c(c7)C(=O)N(C7CCC(=O)NC7=O)C8=O)C6)C5)CC4)c3)c12 (stereo not shown) [Example 8, 3-[4-[6-[2-(2,6-Dioxopiperidin-3-yl)-1,3-dioxoisoindol-5-yl]-6-azaspiro[3.4]octan-2-yl]piperazin-1-yl]-N-[4-methoxy-6-(pyrazol-1-ylmethyl)-1,2-benzoxazol-3-yl]benzenesulfonamide]	> 75	50 to 75	10 to 100
COc1cc(Cn2cccn2)cc2onc(NS(=O)(=O)c3cccc(N4CCN(CCC5CCN(c6ccc7c(c6)C(=O)N(C6CCC(=O)NC6=O)C7=O)C5)CC4)c3)c12 (stereo not shown) [Example 9, 3-[4-[2-[1-[2-(2,6-Dioxopiperidin-3-yl)-1,3-dioxoisoindol-5-yl]pyrrolidin-3-yl]ethyl]piperazin-1-yl]-N-[4-methoxy-6-(pyrazol-1-ylmethyl)-1,2-benzoxazol-3-yl]benzenesulfonamide]	0 to 50	50 to 75	10 to 100
COc1cc(Cn2cccn2)cc2onc(NS(=O)(=O)c3cccc(N4CCN(CC5CCN(c6ccc7c(c6)CN(C6CCC(=O)NC6=O)C7=O)C5)CC4)c3)c12 (stereo not shown) [Example 10, 3-[4-[[1-[2-(2,6-Dioxopiperidin-3-yl)-1-oxo-3H-isoindol-5-yl]pyrrolidin-3-yl]methyl]piperazin-1-yl]-N-[4-methoxy-6-(pyrazol-1-ylmethyl)-1,2-benzoxazol-3-yl]benzenesulfonamide]	50 to 75	25 to 50	
COc1cc(Cn2cccn2)cc2onc(NS(=O)(=O)c3cccc(N4CC5(CN(CC6CCN(c7ccc8c(c7)C(=O)N(C7CCC(=O)NC7=O)C8=O)C6)C5)C4)c3)c12 (stereo not shown) [Example 11, 3-[6-[[1-[2-(2,6-dioxopiperidin-3-yl)-1,3-dioxoisoindol-5-yl]pyrrolidin-3-yl]methyl]-2,6-diazaspiro[3.3]heptan-2-yl]-N-[4-methoxy-6-(pyrazol-1-ylmethyl)-1,2-benzoxazol-3-yl]benzenesulfonamide]	50 to 75	50 to 75	10 to 100

The next lines start with the values.

inhibition at 0.1 µM [1] [%]	Dmax [2] [%]	DC50 [2] [nM]	Structure (SMILES)
0 to 50	50 to 75	10 to 100	COc1cc(Cn2cccn2)cc2onc(NS(=O)(=O)c3cccc(N4CCN(CCC5CCN(c6ccc7c(c6)C(=O)N(C6CCC(=O)NC6=O)C7=O)CC5)CC4)c3)c12 (stereo not shown) [Example 3, N-(6-((1H-Pyrazol-1-yl)methyl)-4-methoxybenzo[d]isoxazol-3-yl)-3-(4-(2-(1-(2-(2,6-dioxopiperidin-3-yl)-1,3-dioxoisoindolin-5-yl)piperidin-4-yl)ethyl)piperazin-1-yl)benzenesulfonamide]
> 75	> 75	< 10	COc1cc(Cn2cccn2)cc2onc(NS(=O)(=O)c3cccc(N4CC5(CCN(CC6CCN(c7ccc8c(c7)C(=O)N(C7CCC(=O)NC7=O)C8=O)C6)CC5)C4)c3)c12 (stereo not shown) [Example 5, 3-[7-[[1-[2-(2,6-Dioxopiperidin-3-yl)-1,3-dioxoisoindol-5-yl]pyrrolidin-3-yl]methyl]-2,7-diazaspiro[3.5]nonan-2-yl]-N-[4-methoxy-6-(pyrazol-1-ylmethyl)-1,2-benzoxazol-3-yl]benzenesulfonamide]
> 75	> 75	< 10	COc1cc(Cn2cccn2)cc2onc(NS(=O)(=O)c3cccc(N4CCN(CC5CCN(CC6CCN(c7ccc8c(c7)C(=O)N(C7CCC(=O)NC7=O)C8=O)CC6)CC5)CC4)c3)c12 (stereo not shown) [Example 7, 3-[4-[[1-[[1-[2-(2,6-Dioxopiperidin-3-yl)-1,3-dioxoisoindol-5-yl]piperidin-4-yl]methyl]piperidin-4-yl]methyl]piperazin-1-yl]-N-[4-methoxy-6-(pyrazol-1-ylmethyl)-1,2-benzoxazol-3-yl]benzenesulfonamide]
